Data on 13 molecules can be found in patent US20250195461A1, “Fibrate Compositions for Treating Inflammation and Neuroinflammation” (TRx Biosciences Limited, priority 2022, published 2025).

Assay in one data set: not given
Conditions: reported value; cited from earlier work.
Turning to `CCCCCCCC/C=C\CCCCCCCC(=O)O` [oleic acid], the “critical micellar concentration (CMC)” value is reported as 2.3 mM.

With `CCCCCCCCCCCCCCCCCC(=O)[O-].[Na+]` [sodium stearate], the “critical micellar concentration (CMC)” value was 0.071 mM.

Assay in another data set: not given
Conditions: cited from earlier work.
For the molecule `CN(C)C(=O)CCCOC(=O)C(C)(C)Oc1ccc(Cl)cc1` [clofibride], the log partition coefficient (log P) is listed as 2.8.

In the case of `CCC(C)(Oc1ccc(C2(c3ccc(OC(C)(CC)C(=O)O)cc3)CCCCC2)cc1)C(=O)O` (centres unmarked) [clinofibrate], the “log P” value is 7.5.

As for `CC(C)(Oc1ccc(C(=O)c2ccc(Cl)cc2)cc1)C(=O)O` [fenofibric acid], the “log P” value is 4.4.

As to `CC(C)(Oc1ccc(Cl)cc1)C(=O)OCCCOC(=O)C(C)(C)Oc1ccc(Cl)cc1` [simfibrate], the “log P” value is given as 6.2.

Turning to `CC(C)(Oc1ccc(C2CC2(Cl)Cl)cc1)C(=O)O` (centres unmarked) [ciprofibrate], the “log P” value is on record as 3.6.

Regarding `CC(C)(Oc1ccc(Cl)cc1)C(=O)OCCCOC(=O)c1cccnc1` [ronifibrate], the “log P” value is listed as 3.9.

With `CC(C)(Oc1ccc(CCNC(=O)c2ccc(Cl)cc2)cc1)C(=O)O` [bezafibrate], the “log P” value is recorded as 4.0.

Consider `CC(C)(Oc1ccc(C2CCCc3ccccc32)cc1)C(=O)O` (centres unmarked) [nafenopin], for which the “log P” value is given as 4.9.

As for `CCOC(=O)C(C)(C)Oc1ccc(Cl)cc1` [clofibrate], the “log P” value is listed as 3.4.

In the case of `CC(C)(Oc1ccc(Cl)cc1)C(=O)OCCOC(=O)c1cccnc1` [etofibrate], the lipophilicity (log P) is reported as 3.5.

As for `Cc1ccc(C)c(OCCCC(C)(C)C(=O)O)c1` [gemfibrozil], the “log P” value is recorded as 4.4.

A further data set in a line: Miscibility / self-emulsification in dissolution media modelling ICH dissolution testing. Type of data set: physicochemical. Conditions: 1 g of 100% or 75% preparation in 1 L PBS with […] curcumin, 37° C., 300 rpm 10 min, then 10 min without stirring. The protocol:
To assess whether oleic acid could self-emulsify at the concentrations used in the disclosed pharmaceutical compositions, experiments was performed that were designed to model dissolution testing according to International Council for Harmonisation (ICH) guidelines. One liter of a dissolution media comprising phosphate buffered saline (PBS) and 2.5% curcumin was warmed to 37° C. and constant stirring at 300 rpm maintained. Curcumin was added as a coloring agent and was very effective at visualizing the distribution of lipids through the dissolution media. Miscibility experiments were performed using two concentrations of oleic acid nominally above the CMC concentration for this fatty acid. In one series of experiments, 1 g of 100% oleic acid was added to the dissolution media. The control compound was 1 g of 100% MAISINE™ CC. In a second series of experiments 1 g of 75% oleic acid (diluted with 250 mg of MAISINE™ CC) was added to the dissolution media. The control compound was 1 g of 75% MAISINE™ CC. The miscibility of oleic acid and MAISINE™ CC was assessed by observing the dissolution media for 10 minutes with constant stirring and then 10 minutes without stirring. Photographs were taken at time 0, 1, 2, 3, 4, 5 and 10 minutes during the stirring phase and 2, 4 and 10 minutes after stirring ceased.
In the case of `CCCCCCCC/C=C\CCCCCCCC(=O)O` [oleic acid], the “miscibility in dissolution media” value is “not miscible”.

One may read the log P as the decadic logarithm of the partition coefficient of the neutral form, usually between octanol and water.
